A short description of data set [1]: Inhibition of HCV NS3/4A protease. Details: species or system Hepacivirus hominis.
The test system of another data set is Hepatitis C virus. Briefly: Antiviral activity against HCV 1b infected in Huh7 cells assessed as inhibition viral subgenomic replication by luciferase based replicon assay. Type of data set: functional, organism-based, Hepacivirus hominis. The conditions noted are these: genotype 1b, Huh-7. In general terms: A replicon is a self-replicating genome or part of one, used to study replication in cells.

Data set [2] deals with Rattus norvegicus. The experiment in a line: (§1) Cmax in Wistar rat at 4 mg/kg, po. Further details: dose 4 mg/kg, route oral. Type of data set: ADME, organism-based. The settings on record: in vivo, BLD = below limit of detection.
The nature of data set [3]: Drug level in Wistar rat liver at 4 mg/kg, po after 4 hrs. Type of data set: ADME, organism-based. Details: dose 4 mg/kg, route oral. The conditions noted are these: read-out: AUC.
The nature of data set [4]: as §1. Details: dose 4 mg/kg, route oral. In kind it is ADME, organism-based. The conditions noted are these: Wistar, in vivo.
Data set [5] relates to Rattus norvegicus. The experiment in a line: AUC (0 to infinity) in Wistar rat plasma at 4 mg/kg, po. The settings on record: in vivo. Details: time infinity, dose 4 mg/kg, route oral. In kind it is ADME, organism-based.

As to `C=C[C@@H]1C[C@]1(NC(=O)[C@@H]1C[C@@H]2CN1C(=O)[C@H](C1CCCCC1)CC(=O)NCCCCCc1cc(OC)cc3nc(-c4ccccc4)cc(c13)O2)C(=O)NS(=O)(=O)C1CC1`, in data set [1], the Ki amounted to 0.56 nM. Besides, the 50% effective concentration (EC50) with Hepatitis C virus came out at 7 nM. Further, the peak concentration (Cmax) result with Rattus norvegicus [2] was “BLD”. In data set [3], the concentration at 4 h was determined as 100 nM.
Turning to `C=C[C@@H]1C[C@]1(NC(=O)[C@@H]1C[C@@H]2CN1C(=O)[C@H](C1CCCCC1)CC(=O)N(C(C)C)CCCCCc1cc(OC)cc3nc(-c4ccccc4)cc(c13)O2)C(=O)NS(=O)(=O)C1CC1`, the Ki in data set [1] came to 0.6 nM. The EC50 in the data set on Hepatitis C virus turned out to be 37 nM. In data set [4], this compound yielded a Cmax of 380 nM. The area under the curve (AUC) in the data set on Rattus norvegicus [5] came to 1.1 µM·h. Moreover, in data set [3], the concentration at 4 h is 9300 nM.
`C=C[C@@H]1C[C@]1(NC(=O)[C@@H]1C[C@@H]2CN1C(=O)[C@H](C1CCCCC1)CC(=O)NCCCCCc1cccc3c1CN(C3)C(=O)O2)C(=O)NS(=O)(=O)C1CC1` gave an inhibition constant (Ki) in data set [1] of 0.76 nM. Moreover, the EC50 in the data set with Hepatitis C virus was determined as 12 nM. In data set [4], this compound came in with a Cmax of 50 nM. This compound also registered an AUC with Rattus norvegicus [5] of 0.12 µM·h. Further, the concentration at 4 h in data set [3] worked out at 2200 nM.
On to `C=C[C@@H]1C[C@]1(NC(=O)[C@@H]1C[C@@H]2CN1C(=O)[C@H](C(C)C)CC(=O)NCCCCCc1cccc3c1CN(C3)C(=O)O2)C(=O)NS(=O)(=O)C1CC1`, for which the Ki in data set [1] came to 1.4 nM. The half-maximal effective concentration (EC50) with Hepatitis C virus amounted to 100 nM.
In data set [1], `C=C[C@@H]1C[C@]1(NC(=O)[C@@H]1C[C@@H]2CN1C(=O)[C@H](C1CCCCC1)CC(=O)N(C(C)C)CCCCCc1cccc3c1CN(C3)C(=O)O2)C(=O)NS(=O)(=O)C1CC1` showed an inhibition constant Ki of 0.61 nM. The EC50 with Hepatitis C virus was found to be 11 nM. For the same compound, in data set [4], the highest level (Cmax) was 90 nM. The AUC in the data set with Rattus norvegicus [5] was determined as 0.09 µM·h. The concentration at 4 h in data set [3] was 3000 nM.
The matching figures for `C=C[C@@H]1C[C@]1(NC(=O)[C@@H]1C[C@@H]2CN1C(=O)[C@H](C(C)C)CC(=O)N(C(C)C)CCCCCc1cccc3c1CN(C3)C(=O)O2)C(=O)NS(=O)(=O)C1CC1`: 0.72 nM, 35 nM, 80 nM, 0.22 µM·h and 2200 nM.
On to `C=C[C@@H]1C[C@]1(NC(=O)[C@@H]1C[C@@H]2CN1C(=O)[C@H](C(C)C)NC(=O)OCCC/C=C\c1cccc3c1CN(C3)C(=O)O2)C(=O)NS(=O)(=O)C1CC1`, for which the Ki in data set [1] is 0.06 nM. For the same compound, the EC50 with Hepatitis C virus was 12 nM.

As a reminder, the Ki is a dissociation constant, usually derived from enzyme kinetics or from competition with a known ligand. For orientation: EC50 means the concentration that produces a half-maximal response. In general, Cmax refers to the peak of the concentration-time curve. As a reminder, the AUC is the area under the concentration-time curve, a measure of exposure. Lower therefore signals less exposure.
